Patent US20090232909A1, “Method for determining physiological effects of hemoglobin” (priority 1999, published 2009)
Entries after “also recorded” stand apart in the source; their conditions may differ.

Assays:
Hb = Hb (Homo sapiens, UniProt P68871+P69905); assay: metHb production by UV-visible difference spectroscopy after NO addition to variously oxygenated Hb; type: biochemical; parameters: purchased Apex Bioscience (Research Triangle Park, N.C.); conditions: 10 mM phosphate
Experimental: Nitroso/nitrosyl derivatives of Hb were measured using a photolysis-chemiluminescence technique [6-fold excess HgCl2 over protein was added to displace S-nitrosothiol (SNO) (Stamler, J. S., et al., Science, 276:2034-2037, 1997)]. Samples were kept on ice for a period of 5 minutes to 2 hours before analyses. MetHb was monitored by UV-visible spectroscopy as the difference absorption above the linear baseline (600-700 nm), and EPR (below).
The samples used in FIGS. 1A-1D were assayed for metHb production by UV-visible difference spectroscopy. The data are normalized to added [NO]. As in FIGS. 1A-1D: open diamonds, 10 mM phosphate; open circles, 10 mM phosphate plus borate; open squares, 10 mM phosphate plus SOD; filled circles and filled squares, 100 mM phosphate. The dotted (10 mM phosphate) and dashed (100 mM phosphate) lines are calculated by using Eq. 5 and Fe(II)NO yields in FIGS. 1C and 1D, respectively. […] Systematic deviations are most pronounced in low phosphate at high oxygen saturation—i.e., under physiological conditions.

[1] = test system: intact human erythrocytes; assay: Distribution of NO groups in membrane and cytosolic fractions of RBCs exposed to NO; type: cell-based; conditions: 0.1 mM DIDS before NO, NO:heme 1:250
Experimental: RBCs derived from fresh venous blood and suspended in oxygen-purged phosphate-buffered saline (PBS) were exposed in gas-tight vials to NO, added as aliquots of oxygen-purged NO-saturated PBS to yield the specified NO:heme ratios based on spectrophotometric assessment of heme content. Exposure to NO was for 5 mins followed by rinses in PBS at 21% O2. RBCs were lysed in 10 mM MOPS, 0.1 mM DTPA, pH 7, followed by centrifugation at 20,000×g for 10 mins to produce membrane and cytosolic fractions, which were solubilized in 1% TX-100. Quantification of NO groups was by photolysis/chemiluminescence (McMahon, T. J. & Stamler, J. S., Meth. Enzymol. 301:99-114, 1999). SNO content was measured as NO removed by treating sample aliquots for 5 mins with HgCl2 at 5-fold molar excess over estimated thiol content (Gow, A. J. & Stamler, J. S., Nature 391:169-173, 1998; Gow, A. J. et al., Proc. Natl. Acad. Sci. USA 96:9027-9032, 1999; McMahon, T. J. & Stamler, J. S., Meth. Enzymol. 301:99-114, 1999). […]
(§1) Immunoprecipitation was carried out by incubation of TX-100 or NP-40 extracts with antibodies followed by protein G-Sepharose. […] Binding of SNO-Hb to IOVs was assessed in 10 mM MOPS buffer, pH 7, at room temperature and 21% O2. Incubation was for 15 mins before IOVs were solubilized in 1% TX-100, and heme content was assessed spectrophotometrically. […]

[2] = test system: inside-out vesicles (IOV); assay: Transnitrosylation of inside-out vesicles (IOV) by SNO-Hb; type: biochemical; conditions: IOVs (or source RBCs) treated before incubation with SNO-Hb
Experimental: RBCs derived from fresh venous blood and suspended in oxygen-purged phosphate-buffered saline (PBS) were exposed in gas-tight vials to NO, added as aliquots of oxygen-purged NO-saturated PBS to yield the specified NO:heme ratios based on spectrophotometric assessment of heme content. Exposure to NO was for 5 mins followed by rinses in PBS at 21% O2. RBCs were lysed in 10 mM MOPS, 0.1 mM DTPA, pH 7, followed by centrifugation at 20,000×g for 10 mins to produce membrane and cytosolic fractions, which were solubilized in 1% TX-100. Quantification of NO groups was by photolysis/chemiluminescence (McMahon, T. J. & Stamler, J. S., Meth. Enzymol. 301:99-114, 1999). SNO content was measured as NO removed by treating sample aliquots for 5 mins with HgCl2 at 5-fold molar excess over estimated thiol content (Gow, A. J. & Stamler, J. S., Nature 391:169-173, 1998; Gow, A. J. et al., Proc. Natl. Acad. Sci. USA 96:9027-9032, 1999; McMahon, T. J. & Stamler, J. S., Meth. Enzymol. 301:99-114, 1999). IOVs were prepared from outdated RBCs following Kondo (Kondo, T., Meth. Enzymol. 171:217-225, 1989) and stripped of peripheral membrane-bound proteins by washing for 60 mins in 0.5 M NaCl/100 mM Tris at pH 8. Chymotrypsin treatment of IOVs was for 15 mins at pH 7 and 37° C. with 5 U enzyme/mg IOV protein. For transnitrosylation, IOVs were incubated with SNO-Hb (50 nmoles SNO-Hb/mg IOV protein, about 10-fold excess over AE1) for 15 mins at pH 7 and 37° C. SNO-Hb was prepared from free or immobilized HbA (Apex) by selective S-nitrosylation of cysβ93 with S-nitroso-cysteine (Jia, L. et al., Nature 380:221-226, 1996; Stamler, J. S. et al., Science 276:2034-2037, 1997; McMahon, T. J. & Stamler, J. S., Meth. Enzymol. 301:99-114, 1999). Hb was immobilized on cyanogen bromide-activated Sepharose 4b.
as §1, with “spectrophotometrically. When employed, RBCs were treated for 60 mins with DIDS (0.1 mM; calculated 10-fold molar excess over AE1), then washed thoroughly to remove unreacted DIDS.” for “spectrophotometrically.”
IOVs incubated with SNO-Hb and washed at pH 8 to remove bound Hb incorporated about 450 pmol NO/milligram of TX-100-extracted IOV protein (FIG. 7D). […] It is important to note that SNO was not detected in extracts of IOVs exposed to NO in the absence of Hb (not shown). […] Following centrifugal separation, washes at pH 7 and solubilization in TX-100, extracts of IOVs were free of Hb as assessed by spectrophotometric detection of heme.

Sequence of Hb (P69905 2-142 limits assumed): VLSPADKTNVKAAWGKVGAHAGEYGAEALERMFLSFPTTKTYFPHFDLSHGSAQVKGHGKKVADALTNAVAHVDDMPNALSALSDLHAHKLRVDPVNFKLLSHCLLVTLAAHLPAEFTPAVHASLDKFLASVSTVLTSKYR
Sequence of Hb (P68871 2-147 limits assumed): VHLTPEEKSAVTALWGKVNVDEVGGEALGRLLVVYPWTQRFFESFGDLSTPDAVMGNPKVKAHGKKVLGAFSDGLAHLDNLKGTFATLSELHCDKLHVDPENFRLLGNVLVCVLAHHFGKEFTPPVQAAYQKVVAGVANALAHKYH

Row | Compound | shortfall in the Fe(III) and Fe(II)NO products (Hb) | effect on SNO in the membrane fraction [1] | effect on net formation of NO-liganded Hb (total NO incorporated by RBCs) [1] | effect of prior treatment on transfer of NO groups from SNO-Hb to IOVs [2]
1 | [N]=O [NO, nitric oxide] | ≤ 20 % of added [NO]0 |  |  | 
2 | O=S(=O)(O)c1cc(N=C=S)ccc1C=Cc1ccc(N=C=S)cc1S(=O)(=O)O [DIDS, 4,4′-diisothiocyanatostilbene-2,2′-disulfonic acid] |  | greatly decreased; also recorded: substantially decreases | did not reduce; also recorded: does not reduce | reduced significantly; also recorded: greatly reduced
